Results as given in PMC6336890 (Scientific Reports, 2019).
pIC50: −log10 of the molar value.

Biological target: PARP1 (Homo sapiens, UniProt P09874)
Assay: in vitro PARP1 activity ELISA, recombinant enzyme
Type: biochemical

Sequence of PARP1 (P09874 2-1014): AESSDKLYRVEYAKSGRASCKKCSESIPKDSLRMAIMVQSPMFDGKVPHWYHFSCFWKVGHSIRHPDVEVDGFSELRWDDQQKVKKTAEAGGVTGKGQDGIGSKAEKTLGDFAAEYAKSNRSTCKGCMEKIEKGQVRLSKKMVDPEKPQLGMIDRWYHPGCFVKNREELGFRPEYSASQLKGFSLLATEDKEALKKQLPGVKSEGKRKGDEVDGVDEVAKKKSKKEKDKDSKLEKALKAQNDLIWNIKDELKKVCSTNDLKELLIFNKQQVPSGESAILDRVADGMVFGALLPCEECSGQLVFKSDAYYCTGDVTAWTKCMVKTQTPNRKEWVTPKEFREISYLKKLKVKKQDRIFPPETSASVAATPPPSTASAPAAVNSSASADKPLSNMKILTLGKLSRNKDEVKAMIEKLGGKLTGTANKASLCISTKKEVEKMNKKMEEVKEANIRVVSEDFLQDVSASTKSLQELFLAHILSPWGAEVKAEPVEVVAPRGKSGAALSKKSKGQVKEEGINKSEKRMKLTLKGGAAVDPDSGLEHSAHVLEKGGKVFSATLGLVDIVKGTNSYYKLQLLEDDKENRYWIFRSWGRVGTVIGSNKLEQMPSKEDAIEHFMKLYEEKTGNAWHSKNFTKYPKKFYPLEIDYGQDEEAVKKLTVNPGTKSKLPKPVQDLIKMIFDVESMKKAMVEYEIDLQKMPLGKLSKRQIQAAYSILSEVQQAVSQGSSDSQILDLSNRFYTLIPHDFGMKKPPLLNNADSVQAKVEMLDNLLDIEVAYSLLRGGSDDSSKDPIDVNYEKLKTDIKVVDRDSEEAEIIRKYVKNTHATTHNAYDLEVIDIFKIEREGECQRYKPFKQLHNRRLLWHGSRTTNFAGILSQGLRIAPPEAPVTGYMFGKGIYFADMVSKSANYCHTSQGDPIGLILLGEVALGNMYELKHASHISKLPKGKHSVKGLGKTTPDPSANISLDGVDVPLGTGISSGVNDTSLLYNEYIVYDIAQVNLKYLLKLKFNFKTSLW

Question: How did the pIC50 turn out when `Cc1ccc2c(=O)[nH]c(-c3ccc(C(C)(C)O)cc3)cn12` [MSC2504877] was run?
Answer: 6.27
